Key:
[1] = Protection against pulmonary edema (adrenaline-induced acute edema of the lungs); assay type: in vivo, male albino rats of Wistar type; details: parenteral, 15 min before adrenaline
Experimental: The method of A. M. Rothschild and A. Castania (Arch. Pharmacol., 295, 177 (1976)), has been used to develop the acute edema in the lungs and substances of known therapeutic activity have been used for comparison purpose.
For the test, male albino rats of Wistar type of average weight 250-350 grams, have been used for the test. The rats were stabilized for a period of ten days at a temperature of 21°±1° C., under conditions of controlled diet and water "ad libitum". Prior to the test, the animals were divided into groups of ten for the purpose of achieving good randomization. Each dose was tried on three groups of animals. The animals were anesthetized with pentobarbital in a dose of 30 mg/kg at the beginning of the test. After the animals were in complete narcosis, the following substances were administered by the parenteral route:
1. to the animals as controls, physiological saline solution in the amount of 1 ml/kg,
2. to the animals in the test, a solution of the substance being tested in physiological saline solution in the amount of 1 ml/kg in the doses reported hereinbelow in the table.
After a period of 15 minutes, for the purpose of determining the protective activity of the substances, adrenaline was administered in the amount of 16 γ/kg by the endovenous route and in physiological saline solution, for the purpose of causing acute edema.
After five minutes, the animals were killed by removal of the head, the lungs were removed and the weight of the lungs were determined. The results of the test are reported in Table 1 hereinbelow, together with the concentration of the substances and the relative inhibition of edema in percent.

[2] = Protection against shock caused by endotoxins (lipopolysaccharide B from S. Enteritidis); assay type: in vivo, male rats of Wistar type; details: parenteral, 1 h before endotoxin, after 24 h
Source text: Endotoxin-induced shock has been produced according to the method reported by A. Bertelli and L. Donati, in the publication "The Influence of Some Enzymes and Enzymes Inhibitors in Shock", published in "SHOCK Biochemical,Pharmaceutical and Clinical Aspects"; A. Bertelli and N. Back Editors, Advances in Experimental Medicine and Biology; Volume 9, Plenum Press New York - London 1970, page 215. By way of comparison, there has been used a substance of well known therapeutical activity, specifically aprotinine, the commercial products marketed by Farbenfabriken Bayer, under the name "Trasylol". Male rats of Wistar type of 120 grams by weight ±10 have been used. The rats were previously stabilized for a period of ten days at a temperature of 21°±1° C. under a controlled diet and water "ad libitum". Twenty-four hours prior to the test, the animals were divided in groups of ten for the purpose of achieving randomization. Every single dose has been tried on six groups of animals.
Lipopolysaccharide B from S. Enteritidis (Difco Labs.) was used as the endotoxin. This substance was administered in the dose of 10 mg/kg by the endoperitoneal route, one hour after administration of the substance being administered by the parenteral route or in the form of a physiological solution in equal volume per kilogram to the animals being used as control.
The mortality in percent was determined in the animals being tested as compared with the controls after twenty-four hours.

[3] = Protection against anaphylactic shock (horse serum); assay type: in vivo, male albino guinea pigs; details: parenteral, with horse serum challenge, after 12 h
Experimental: The anaphylactic shock has been induced according to the method of S. M. Feinberg, M. Pharmacol. Exp. Therapeut., 99, 195 (1950). There have been used male albino guinea pigs of average weight, 350±20 grams previously stabilized for a period of ten days at a temperature of 21°±1° C., under conditions of controlled diet and water "ad libitum". Three days before the beginning of the experiment, the animals are divided in groups of ten for the purpose of achieving good randomization. Each single dose has been tried on three groups of animals.
The sensitization has been carried out by administration of 1 ml/guinea pig through the endovenous route of horse serum, (whole serum, not treated with preservatives) diluted 1:10 in physiological saline solution. After 14 days, the solutions of the substances being tested and the samples of physiological solutions for use with the controls are administered through the parenteral route. Simultaneously, 1 ml/guinea pig of horse serum, undiluted is administered, this substance being used as the agent which prompts the anaphylaxis. The percentage of mortality is determined after 12 hours.

[4] = test system: Fibrin Degradation Products; experiment: Inhibition of hyperfibrinolysis caused by urokinase (F.D.P., staphylococcal clumping test); assay type: in vivo, Wistar rats; details: parenteral, 30 min before urokinase 2500 U.I/rat
Experimental: The induction of hyperfibrinolysis state is caused by administration of urokinase. The determination of the inhibition is carried out by determination of the F.D.P. value, that is Fibrin Degradation Products, according to the procedure of J. Hawiger et al, J. Lab. Clin. Med. 75, 93 (1970), by means of the staphylococcal clumping test (Boehringer Mannheim GmbH test).
There are used Wistar rats of 300 grams ±10 by weight previously stabilized for a period of ten days at a temperature of 21°±1° C., under conditions of controlled diet and water "ad libitum". Twenty-four hours prior to the beginning of the experiment, the animals are divided in groups of ten for the purpose of achieving randomization. Each individual dose is tried on three groups of animals.
At the beginning of the test, zero time, the compounds being tested are administered through the parenteral route. In the case of the control animals, at the same time an equal volume of a physiological saline solution is administered except that some blood is removed by means of a cardiac puncture, for the purpose of determining the basal fibrinolytic activity. After 30 minutes, human urokinase (the composition marketed by Ukidan-Serono) is administered intravenously in the amount of 2500 U.I/rat. After an additional period of ten minutes, blood is removed by means of a cardiac puncture for the final determination of F.D.P., a determination which is expressed in […].

In the case of `N=C(N)NCCC[C@H](N)C(=O)O` [L-Arginine.2HCl], the “% INHIBITION OF EDEMA” value ([1]; dose 1 mg/kg) is reported as 7%, the “% INHIBITION OF EDEMA” value ([1]; dose 2.5 mg/kg) is reported as 9% and the “% INHIBITION OF EDEMA” value ([1]; dose 5 mg/kg) is reported as 11%. The “% INHIBITION OF EDEMA” value ([1]; dose 10 mg/kg) was 10.1%, the “% INHIBITION OF EDEMA” value ([1]; dose 20 mg/kg) was 13.1% and the “% MORTALITY” value ([2]; dose 5 mg/kg) was 69%. For the same compound, the “% MORTALITY” value ([2]; dose 10 mg/kg) was 73%, the “% MORTALITY” value ([2]; dose 20 mg/kg) was 71% and the “% MORTALITY” value ([2]; dose 50 mg/kg) was 78%. For the same compound, the “% MORTALITY” value ([3]; dose 10 mg/kg) was 78.5%, the “% MORTALITY” value ([3]; dose 20 mg/kg) was 76.3% and the “% MORTALITY” value ([3]; dose 50 mg/kg) was 80%. The F.D.P. ([4]; dose 5 mg/kg) was 3.28 milliliters, the F.D.P. ([4]; dose 10 mg/kg) was 2.96 milliliters and the F.D.P. ([4]; dose 20 mg/kg) was 3.15 milliliters.
In the case of `CO` [Methanol], the “% INHIBITION OF EDEMA” value ([1]; dose 0.08 mg/kg) is reported as 2.3%, the “% INHIBITION OF EDEMA” value ([1]; dose 0.8 mg/kg) is reported as 5% and the “% INHIBITION OF EDEMA” value ([1]; dose 2 mg/kg) is reported as 12%. The “% INHIBITION OF EDEMA” value ([1]; dose 4 mg/kg) was 6%, the “% INHIBITION OF EDEMA” value ([1]; dose 8 mg/kg) was 15% and the “% INHIBITION OF EDEMA” value ([1]; dose 16 mg/kg) was 15%. The “% MORTALITY” value ([2]; dose 2 mg/kg) was 76%, the “% MORTALITY” value ([2]; dose 4 mg/kg) was 72% and the “% MORTALITY” value ([2]; dose 8 mg/kg) was 74%. The “% MORTALITY” value ([3]; dose 2 mg/kg) was 76.6%, the “% MORTALITY” value ([3]; dose 4 mg/kg) was 79.4% and the “% MORTALITY” value ([3]; dose 8 mg/kg) was 81%. The F.D.P. ([4]; dose 2 mg/kg) was 3.02 milliliters, the F.D.P. ([4]; dose 4 mg/kg) was 3.12 milliliters and the F.D.P. ([4]; dose 8 mg/kg) was 3.27 milliliters.
In the case of Aprotinin, the “% INHIBITION OF EDEMA” value ([1]; dose 30 U.I.K./kg) is reported as 17.3%, the “% INHIBITION OF EDEMA” value ([1]; dose 100 U.I.K./kg) is reported as 36.5% and the “% INHIBITION OF EDEMA” value ([1]; dose 300 U.I.K./kg) is reported as 54.5%. The “% INHIBITION OF EDEMA” value ([1]; dose 1000 U.I.K./kg) was 42.7%, the “% MORTALITY” value ([2]; dose 1000 U.I.K./kg) was 50.0% and the “% MORTALITY” value ([2]; dose 3000 U.I.K./kg) was 65.0%. For the same compound, the “% MORTALITY” value ([2]; dose 10000 U.I.K./kg) was 65.0%, the “% MORTALITY” value ([2]; dose 100000 U.I.K./kg) was 93.3% and the “% MORTALITY” value ([3]; dose 3000 U.I.K./kg) was 40%. The “% MORTALITY” value ([3]; dose 10000 U.I.K./kg) was 55%, the “% MORTALITY” value ([3]; dose 100000 U.I.K./kg) was 80% and the F.D.P. ([4]; dose 1000 U.I.K./kg) was 0.34 milliliters. For the same compound, the F.D.P. ([4]; dose 3000 U.I.K./kg) was 0.29 milliliters and the F.D.P. ([4]; dose 10000 U.I.K./kg) was 0.30 milliliters.
